Measurements reported in US7964598B2 (The J. David Gladstone Institutes, priority 1995, dated 2011).
Values joined by “and” are separate entries in the source; they are usually repeats but may differ in a detail not shown here. Equal entries are not always repeated. “Also recorded” adds a separate entry of the source.

How the values were obtained:
[1] = molecular target: T1, YFP-apoE4-CFP (Homo sapiens, UniProt P02649, C130R); test: Cell-based FRET assay, YFP-apoE4-CFP; settings: 5-20 μM; for ratio of FRET to CFP emission in the cells expressing YFP-apoE4-CFP: intracellular; for ratio of FRET to CFP emission in media of YFP-apoE4-CFP cells: medium
T1 construct: vector signal peptide (pFLAG-CMV3) (N); FLAG (N); expressed in transfected cells
Source text: (§1) Xu et al. (2004) J. Biol. Chem. 279:25511-25516. FRET—the non-radioactive transfer of photon energy from an excited fluorophore (donor) to another fluorophore (acceptor)—occurs only when the donor and acceptor are in close proximity (<100 Å). Thus, this approach can be used to measure nanometer scale distances.
(§2) Xu et al. (2004) J. Biol. Chem. 279:25511-25516. The constructs are depicted schematically in FIG. 29.
(§3) Since the emission spectrum of CFP (460-520 nm) overlaps with the excitation spectrum of YFP (480-520 nm), FLEXstation (Molecular Devices) can be used to measure FRET in living cells expressing YFP-apoE3-CFP or YFP-apoE4-CFP in a high throughput manner. […] Thus, the ratio of FRET to CFP emission in cells expressing YFP-apoE4-CFP is much higher than that in those expressing YFP-apoE3-CFP (FIG. 31). […] Since the FLEXstation can read FRET in both cells and the culture media treated without or with various small molecules, this assay allows one to know whether a small molecule affects apoE4 domain interaction only in the medium (“medium FRET”) or also inside the cell (“intracellular FRET”). In addition, after measurement of the intracellular FRET, the cells can be incubated further with MTT to determine the cytotoxicity of the compound. Thus, the cell-based FRET assay can simultaneously provide three sets of data-intracellular FRET, medium FRET, and cytotoxicity.
(§4) Quantifying FRET in Transfected Neuro-2a Cells—Stably transfected Neuro-2a cells expressing YFP-apoE3-CFP or YFP-apoE4-CFP at similar levels were selected by fluorescence activated cell sorter (FACS). YFP and CFP images of transfected cells were acquired with the Meta Detector, and their fluorescence intensities were analyzed with the mounted computer. The FRET signal was calculated as the ratio of YFP to CFP fluorescence intensity under CFP excitation. For each YFP-apoE-CFP construct, the FRET signal was measured in at least 12 cells from different fields.
(§5) Quantifying FRET in the Culture Medium—Neuro-2a cells stably expressing YFP-apoE3-CFP or YFP-apoE4-CFP and wildtype cells were grown in T175 flasks to 90% confluence and incubated with serum-free minimum essential medium containing N2 supplement for 24 h. The conditioned medium (20 ml/flask) was concentrated about 20-fold with Centriplus-YM-10 concentrators (Amicon, Bedford, Mass.), dialyzed against PBS, illuminated at the CFP excitation wavelength (430 nm), and scanned for emission spectrum. The FRET signal was calculated as the ratio of emission at 525 nm (YFP) to that at 475 nm (CFP). Conditioned medium from cells expressing apoE3-CFP or apoE4-CFP was used to determine baseline fluorescence in the absence of FRET.

[2] = molecular target: T2, YFP-apoE3-CFP (Homo sapiens, UniProt P02649); test: Cell-based FRET assay, YFP-apoE3-CFP; settings: for ratio of FRET to CFP emission in cells expressing YFP-apoE3-CFP: intracellular; for ratio of FRET to CFP emission in media of YFP-apoE3-CFP cells: medium
T2 construct: vector signal peptide (pFLAG-CMV3) (N); FLAG (N); expressed in transfected cells
Source text: as §1, §2, §3, §4, §5

[3] = system: YFP-apoE4-CFP cells; test: MTT cytotoxicity assay; type: cell-based, mouse; settings: 5-10 μM
Source text: as §3

[4] = system: Neuro-2a cells; test: Aβ-induced lysosomal leakage (cytosolic β-hexosaminidase); type: cell-based, mouse
Description: The cytosolic fraction was obtained by ultracentrifugation, and the cytosolic β-hexosaminidase activity was measured.
Quantitation of the lysosomal enzyme β-hexosaminidase activity in the cytosol indicates lysosomal leakage. […] After incubation the cells were washed and cytosolic fractions were isolated as described in Materials and Methods. The enzymatic activity of β-hexosaminidase was assayed in 20 μg of cytosolic protein for each sample.
Lysosomal leakage was quantitated by assaying cytosolic 0-hexosaminidase activity. […] Conditioned media were prepared as described above. Apoptosis was quantitated by measuring DNA fragmentation.

[5] = system: Neuro-2a cells; test: Aβ-induced apoptosis (DNA fragmentation assay); type: cell-based, mouse
Description: DNA Fragmentation Assay—DNA fragmentation of apoptotic cells was determined with Cell Death Detection ELISA kits (Roche, Indianapolis, Ind.).
FIG. 38. […] Control cells were not treated with Aβ1-42. Apoptotic cell death was measured with a DNA fragmentation assay. Values are the mean±S.D. of three separate experiments.
FIGS. 39A and 39B. […] Lysosomal leakage was quantitated by assaying cytosolic 0-hexosaminidase activity. […] Conditioned media were prepared as described above. Apoptosis was quantitated by measuring DNA fragmentation.

[6] = molecular target: T3, apoE4 (Homo sapiens, UniProt P02649, C130R); test: Emulsion binding assay for domain interaction, apoE4
T3 construct: made in house
Description: (§6) Preparation of emulsion particles. Triolein (160 mg) and L-alpha-Phosphatidylcholine (40 mg) are combined and dried under nitrogen. After the addition of 8 mls of buffer (10 mM Tris, 100 mM KCl, 1 mM EDTA, pH 8.0), the mixture is sonicated in a water bath to obtain a heterogeneous mix of emulsion particles. The particles are harvested by ultracentrifugation (TLA 100.2 rotor, 30,000 rpm for 30 minutes) and the subsequent lipid cake is removed by tube slicing and resuspended in 100 μt 20 mM Phosphate Buffer (PB). Triolein and phospholipid content are measured and total emulsion particle concentration is determined.
(§7) Radiolabelling Freshly denatured and renatured Apolipoprotein E3 and E4 are radiolabelled using Bolton-Hunter Reagent [^125I] (ICN). Specific Activity is determined using Lowry method and Gamma 8000 counter.
(§8) Binding Affinity Assay. […] In glass tubes, 25 μg of protein (with iodinated tracer) was reduced with 1% β-mercaptoethanol. Two hundred and fifty μg of emulsion particles and 2.5 μl of compound (10 mM stock) were added and the final mixture was brought up to 250 μl with 20 mM phosphate buffer (PB). The reaction mixture was then incubated in a 37° C. water bath for 2 hours before being transferred to 1.5 ml ultracentrifuge tubes. Finally, 50 μl of 60% sucrose was mixed with the sample and 400 μl 20 mM PB was carefully layered on top. Using a TLA 100.2 rotor, the tube was spun at 30,000 rpm for 30 minutes and subsequently cut to separate the floating emulsion particle layer from the free protein at the bottom of the tube. These fractions were then combined with the respective half of the actual tube and counted using a Gamma-8000. […] Protein-only assays yielded 94.5-96.6% of protein accumulated in the bottom portion of the tube. In emulsion particle-only assays, 94% of emulsion particles accumulated in the top portion of the tube.
(§9) Preparation of Emulsion Particles and VLDL Binding Affinity Assay. VLDL-like emulsion particles were prepared using triolein (160 mg) and L-alpha-phosphatidylcholine (40 mg), as described. Dong and Weisgraber (1996) supra; and Dong et al. (1994) J. Biol. Chem. 269:22358-22365.

[7] = molecular target: T4, apoE3 (Homo sapiens, UniProt P02649); test: Emulsion binding assay, apoE3; settings: follow-up assay
T4 construct: made in house
Description: as §6, §7, §8, §9

[8] = system: apoE3; test: Aβ production assay, B103-APP cells incubated with apoE3; type: cell-based, rat; settings: FIG. 22
Description: Aβ production assay. Stable neuroblastoma B103 cell lines transfected with a wildtype hAPP cDNA construct (B 103-APP) were selected by growing them in Dulbecco's modified Eagle's medium (DMEM) containing 10% fetal calf serum (FBS) and 400 μg/ml G418. A cell line expressing APP at similar levels in mouse brains has been identified by RNase protection assay (RPA) and was used in the studies described below. To determine Aβ production, B103-APP cells were incubated with serum-free minimal essential medium (MEM) containing N2 supplements with or without apoE isoforms for 24 h at 37° C. After incubation, 50 μl of medium was collected and assayed for Aβ levels with an ELISA method. The cells were lysed, and cellular proteins were determined by the Lowry method. AP production was normalized to cellular protein.
Cell Culture. Rat neuroblastoma B103 cells stably expressing human wildtype APP (hAPP695wt) (Xu et al. ((1999) Proc. Natl. Acad. Sci. USA 96:7547-7552; Esposito, et al. (2004) J. Neurochem. 91:1260-1274) were generated in Dr. Lennart Mucke's laboratory at the Gladstone Institute of Neurological Disease and maintained in Dulbecco's modified Eagle's medium (DMEM) (GIBCO, Grand Island, N.Y.) containing 400 μg/ml G418, 10% fetal bovine serum, and 5% horse serum at 37° C. Twenty-four hours after plating into 48-well plates (1×10^5 cells per well), cells were washed twice with serum-free DMEM and cultured for another 24 h in DMEM containing 1% N-2 supplement (GIBCO) to induce differentiation. The cells were treated with either β-VLDL (25 μg/ml cholesterol), recombinant human apoE isoform-enriched β-VLDL (7.5 μg/ml apoE and 25 μg/ml cholesterol), or recombinant human apoE (7.5 μg/ml apoE) in fresh DMEM containing 1% N-2 supplement for an additional 24 h. In some experiments, RAP (25 nM or 1 μM) was added to the cells 1 h before apoE treatment.
Aβ Assay. Aβ secreted into the medium was detected with a sandwich enzyme-linked immunosorbent assay (ELISA), using mAb 266 as a capturing antibody and 3D6 as a detecting antibody, as described. Johnson-Wood et al. ((1997) Proc. Natl. Acad. Sci. USA 94:1550-1555). Aβ was quantified from a standard curve (Aβ42; Bachem, Torrance, Calif.) and normalized by total cellular protein.

[9] = system: B103 cells; test: Toxicity to B103 cells; type: cell-based, rat; settings: at the micromole level
[10] = Water solubility; type: physicochemical
[11] = follow-up assay, second E4 control
[12] = initial assay, 2.5 μl of compound (10 mM stock) in 250 μl, 37° C. 2 hours, listed as 3-butyl-1-ethyl-5-(2-(3-sulfobutyl-benzo(1,3)oxazo, potassium salt))

T2 sequence (P02649 19-317): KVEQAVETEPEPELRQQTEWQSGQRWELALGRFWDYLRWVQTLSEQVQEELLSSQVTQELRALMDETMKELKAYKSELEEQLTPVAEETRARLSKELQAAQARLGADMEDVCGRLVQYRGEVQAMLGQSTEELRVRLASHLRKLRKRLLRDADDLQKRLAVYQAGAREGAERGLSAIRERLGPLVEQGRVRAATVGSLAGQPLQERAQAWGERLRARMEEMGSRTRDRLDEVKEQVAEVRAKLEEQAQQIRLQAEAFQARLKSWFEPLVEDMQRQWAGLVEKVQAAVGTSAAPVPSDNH
T1 sequence (P02649 19-317 C130R): as the sequence (P02649 19-317) above, with C112R counted along it
T3 sequence (P02649 19-317 C130R): as the sequence (P02649 19-317) above, with C112R counted along it
T4 sequence (P02649 19-317): as the sequence (P02649 19-317) above

In the case of `CCN(CC)c1ccc(/N=N\c2cc(S(=O)(=O)O)cc3cc(S(=O)(=O)O)cc(O)c23)c(O)c1` [GIND-28], the “ratio of FRET to CFP emission in the cells expressing YFP-apoE4-CFP” value [1] was “decreased significantly”, the “ratio of FRET to CFP emission in media of YFP-apoE4-CFP cells” value [1] was “decreased significantly” and the “ratio of FRET to CFP emission in cells expressing YFP-apoE3-CFP” value [2] was “none of these compounds altered significantly”. For the same molecule, the “ratio of FRET to CFP emission in media of YFP-apoE3-CFP cells” value [2] was “none of these compounds altered significantly”, the “cytotoxicity (MTT assay)” value [3] was “did not cause significant cytotoxicity” and the “lysosomal leakage, cells with medium alone or medium containing apoE3 plus Aβ1-42” value [4] was “no significant effect”. The “apoE4 potentiation of Aβ-induced lysosomal leakage” value ([4]; 5 μM, apoE4 conditioned medium, Aβ1-42 20 μM) was “block; also recorded: abolish”, the “apoptosis, cells with medium alone or medium containing apoE3 plus Aβ1-42” value [5] was “no significant effect” and the “apoE4 potentiation of Aβ-induced apoptosis” value ([5]; apoE4 conditioned medium, Aβ1-42) was “block; also recorded: abolish”.
In the case of `CCCCN1C(=O)/C(=C/C=C2/Oc3ccccc3N2CCCCS(=O)(=O)[O-])N(CC)C1=S.[K+]` [GIND-105], the “E4 + cpd n = 3, % bound” value ([6]; follow-up assay) was 57%, the “E4 + cpd n = 3, % free” value ([6]; follow-up assay) was 43% and the “E4 control, % bound” value [6, 11] was 45%. For the same molecule, the “E4 control, % free” value [6, 11] was 55%, the “E4 + cpd, % bound” value [6, 12] was 28% and 21% and the “E4 + cpd, % free” value [6, 12] was 72% and 79%. For the same molecule, the “E3 + compound, % bound” value [7] was 30%, the “E3 + compound, % free” value [7] was 70% and the “effect on apoE3 (Aβ production)” value [8] was “no effect”. The “cytotoxicity (MTT assay)” value [3] was “did not cause significant cytotoxicity”, the “lysosomal leakage, cells with medium alone or medium containing apoE3 plus Aβ1-42” value [4] was “no significant effect” and the “apoptosis, cells with medium alone or medium containing apoE3 plus Aβ1-42” value [5] was “no significant effect”. For the same molecule, the “toxicity to B103 cells” value [9] was “no significant toxicity” and the water solubility [10] was “water-soluble”.
In the case of `Cc1cc(Cl)cc2sc(-c3sc4cc(Cl)cc(C)c4c3OS(=O)(=O)O)c(OS(=O)(=O)O)c12` [GIND-111], the “ratio of FRET to CFP emission in the cells expressing YFP-apoE4-CFP” value [1] was “decreased significantly”, the “ratio of FRET to CFP emission in media of YFP-apoE4-CFP cells” value [1] was “decreased significantly” and the “ratio of FRET to CFP emission in cells expressing YFP-apoE3-CFP” value [2] was “none of these compounds altered significantly”. For the same molecule, the “ratio of FRET to CFP emission in media of YFP-apoE3-CFP cells” value [2] was “none of these compounds altered significantly” and the “cytotoxicity (MTT assay)” value [3] was “did not cause significant cytotoxicity”.
